The subject of one experiment is PKAII. Nature of the experiment: Relative affinity for PKAII (cAMP = 1), in vitro. It counts as binding. As to conditions: relative to cAMP = 1.
In the next experiment the target is T1, Epac (Homo sapiens, UniProt O95398).
T1 sequence (O95398 1-923): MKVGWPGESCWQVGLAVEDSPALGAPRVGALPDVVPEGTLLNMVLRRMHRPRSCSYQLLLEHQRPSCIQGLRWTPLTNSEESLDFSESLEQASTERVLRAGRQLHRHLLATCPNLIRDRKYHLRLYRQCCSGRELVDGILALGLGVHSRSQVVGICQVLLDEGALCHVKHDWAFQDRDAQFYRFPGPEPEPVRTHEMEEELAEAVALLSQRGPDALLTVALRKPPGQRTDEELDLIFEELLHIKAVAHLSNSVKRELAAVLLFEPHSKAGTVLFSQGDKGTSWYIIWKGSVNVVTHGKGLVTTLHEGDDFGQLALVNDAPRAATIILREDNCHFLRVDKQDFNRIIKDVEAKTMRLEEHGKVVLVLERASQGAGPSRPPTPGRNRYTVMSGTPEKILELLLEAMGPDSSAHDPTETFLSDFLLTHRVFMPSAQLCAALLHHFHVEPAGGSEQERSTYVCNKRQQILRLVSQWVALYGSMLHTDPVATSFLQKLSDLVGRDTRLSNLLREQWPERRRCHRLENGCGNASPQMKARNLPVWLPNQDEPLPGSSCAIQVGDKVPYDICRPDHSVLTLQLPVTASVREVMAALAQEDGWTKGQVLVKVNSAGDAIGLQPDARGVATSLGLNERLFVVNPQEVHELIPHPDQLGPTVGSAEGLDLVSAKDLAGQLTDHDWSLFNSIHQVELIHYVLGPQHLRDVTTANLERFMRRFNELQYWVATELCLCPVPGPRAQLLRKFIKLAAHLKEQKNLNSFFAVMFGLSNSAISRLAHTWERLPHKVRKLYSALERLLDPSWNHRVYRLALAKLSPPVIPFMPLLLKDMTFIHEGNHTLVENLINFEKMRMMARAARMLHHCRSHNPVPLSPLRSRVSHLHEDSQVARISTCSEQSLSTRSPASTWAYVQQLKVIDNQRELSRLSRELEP
Nature of the experiment: Relative affinity for Epac (cAMP = 1), in vitro. The experiment is classed as binding. As to conditions: relative to cAMP = 1.

Experiment [1] has as its system CREB. Nature of the experiment: CREB phosphorylation (read-out for PKA) in NIH3T3-A14-Epac1 cells. It counts as cell-based. As to conditions: concentration as high as 100 μM. As to the method: Upper panel: NIH3T3-A14-Epac1 cells were treated for 15 min with 8-Br-cAMP, and cell lysates were analyzed for activation of Rap1 and phosphorylation of CREB. Lower panel: NIH3T3-A14-Epac1 cells were treated in duplicate for 15 min with increasing concentrations of 8-pCPT-2′-O-Me-cAMP. Cells were lysed and equal amounts of cell lysate were incubated with precoupled GST-RalGDSRBD and Rap1 was assayed by immunoblotting with Rap1 antibody.
Therefore, 8-CPT-2′-O-Me-cAMP was tested in NIH3T3-A14-Epac1 cells for the activation of Epac, using Rap1 as a read-out, and of PKA, using phosphorylation of the common PKA substrate CREB 29 as a read-out.
Antibodies against phosphorylated CREB (directed against phosphorylated Serl33) were obtained from Cell Signalling (Beverly, Mass., USA), and antibodies against K-Rev/Rap1 and polyclonal anti-HA were obtained from Santa Cruz Biotechnology (Santa Cruz, Calif., USA). The following inhibitors and stimuli were used at concentrations indicated, unless stated otherwise: RGD peptide (100 μM) and H-89 (10 μM) was obtained from Biomol Research Laboratories Inc. (Plymouth Meeting, Pa., USA). 8-Br-cAMP (1 mM) was obtained from BIOLOG Life Science Institute (Bremen, Germany). TPA (12-O-tetradecanoylphorbol-13-acetate) was obtained from Sigma (Steinheim, Germany) and was used at a concentration of 100 ng/ml. […]

Experiment [2] deals with CREB. The experiment can be described thus: CREB phosphorylation in Ovcar3 cells. The experiment is classed as cell-based. As to conditions: concentration of 200 μM. As to the method:
A: 8-pCPT-2′-O-Me-cAMP stimulates cell adhesion. Upper panel: quantification of Ovcar3 cells adhering to fibronectin after treatment with increasing concentrations of 8-pCPT-2′-O-Me-cAMP. Lower panel: Ovcar3 cells were treated with increasing concentrations of 8-pCPT-2′-O-Me-cAMP for 15 min, cells were lysed and analyzed for activation of Rap1 (upper blot) and CREB (lower blot). Total Rap1 levels are shown (middle blot). B: 8-pCPT-2′-O-Me-cAMP increases the rate of cell adhesion. Upper panel: quantification of Ovcar3 cells adhering to fibronectin at various time points. Lower panel: cells were treated with 60 μM 8-pCPT-2′-O-Me-cAMP for the indicated times. Cell lysates were analyzed for activation of Rap1 (upper blot) and CREB (lower blot). Total levels of Rap1 in cell lysates are shown (middle blot). C: Ovcar3 cells were either pre-incubated at 37° C. for 30 min with the PKA inhibitor H-89 (10 μM) 30 min prior to seeding onto the wells (‘Short’) or H-89 was added 30 min prior to trypsinization and during the recovery period (‘Long’) and seeded onto wells in the absence or presence of 8-pCPT-2′-O-Me-cAMP (100 μM). Cells were allowed to adhere for 1 h. D, cAMP-induced adhesion to fibronectin is blocked by inhibitors of Rap1. […] Cells were treated with 8-Br-cAMP or 8-pCPT-2′-O-Me-cAMP and adhesion to fibronectin was determined. […]

Regarding `CO[C@@H]1[C@@H]2OP(=O)(O)OC[C@H]2O[C@H]1n1c(Sc2ccc(Cl)cc2)nc2c(N)ncnc21` [Compound I-007, 8-(4-chloro-phenylthio)-2′-O-methyladenosine-3′,5′-cyclic monophosphate], the “Relative affinity CAMP = 1 PKAII” value in the experiment with PKAII is 0.003. The “Relative affinity CAMP = 1 Epac” value on Epac came to 4.6. For the same compound, the CREB phosphorylation result in the experiment with CREB [1] and in the experiment with CREB [2] was “did not induce CREB phosphorylation” throughout.

These data come from US7906491B2 (Univisitair Medisch Centrum Utrecht, priority 2002, dated 2011).
